Tests used:
[1] = Hydrolytic stability study in DMSO and water (3:1); format: physicochemical; conditions: 1 mg/mL
Method: General HPLC Procedure • Agilent, Waters X-Select C18, 2.5 μm, 4.6×30 mm column, 4 min method, 5-95% MeCN/water (0.1% formic acid). • Flow rate 2.5 ml/min • Column Oven Temperature 40° C. • Detection 254 nm.
Sample Preparation • A 1.0 mg sample of test compound was dissolved in 750 μL of DMSO. Water (250 μL) was added slowly, ensuring no precipitation occurred.
Recording Stability • A 50 μL aliquot of the test solution was removed and analysed in duplicate by 5 μL HPLC injections. The peak area for the test compound was recorded following manual integration of the corresponding UV trace. • The test solution was heated to 60° C., with stirring, and 50 μL aliquots removed for HPLC analysis at 5 and 24 h timepoints.

[2] = system: β-catenin; experiment: (m) Accumulation of β catenin in d-U937 cells; format: cell-based, human; conditions: Reference Compound at 1 μg/mL defined as 100%
Outline: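 PMA-differentiated (100 ng/mL, 48–72 hr) human U937 macrophage-type cells treated with test compound or vehicle for 18 hr. β-catenin measured by in-cell ELISA (anti-β-catenin, HRP secondary, TMB, OD450–655). Signal corrected for cell number by dividing by crystal violet OD595.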

[3] = Hepatic microsomal stability, human; format: in vitro ADME; conditions: pooled liver microsomes, read-out: Mean intrinsic clearance
Method: (§1) • Microsomal stability assays were performed with incubations of test compounds at 0.1 μM (n=2, final DMSO concentration 0.25%), and carried out using pooled human, […], rat and Cynomolgus macaque hepatic microsomes from Xenotech (Lots 1210153, 0810143 and 1110042, respectively) at 0.25 mg protein/mL in the presence of cofactor, NADPH. The incubations were performed at 37° C. with 100 μL aliquots taken from the incubation, at 0, 2, 5, 10 and 20 minutes (and, in the case of Cynomolgus macaque hepatic microsomes, 40 minutes) and reactions terminated by addition of 100 μL of acetonitrile containing carbamazepine as analytical internal standard. […] Half-life values were calculated from the relationship T1/2 (min)=−0.693/λ • where λ was the slope of the Ln concentration vs time curve. • The in vitro intrinsic clearance, Clint (mL/min/kg), was calculated and scaled to hepatic extraction ratios using the following scaling parameters and formulae.
(§2) Formulae Clint(tissue clearance) mL/min/kg=[0.693/t½ (min)]×[1/microsomal protein concentration mg/mL]×[mg microsomes/g liver]×[g liver/kg body weight] […] Half-life values were calculated from the relationship T1/2 (min)=−0.693/λ • where λ was the slope of the Ln concentration vs time curve. • Standard compounds testosterone, midazolam and 4-methylumbelliferone are included in the assay design.

[4] = Plasma pharmacokinetics in beagle dogs; format: in vivo, male beagle dogs; conditions: Dog
Method: Blood samples (approximately 1.5 mL) were collected from jugular vein such that the samples were obtained at pre-dose, 0.25, 0.5, 1, 2, 4, 6, 8, and 24 hr (p.o.) and pre-dose, 0.08, 0.25, 0.5, 1, 2, 4, 8, 12, 24 and 32 hr (i.v.) post dose. The blood samples were collected from a set of three dogs at each time point in labelled micro centrifuge tube containing K2EDTA as anticoagulant. Plasma samples were separated by centrifugation at 2500 g for 10 min of whole blood and stored below −70° C. until bioanalysis. All samples were processed for analysis by protein precipitation using acetonitrile and analyzed with LC-MS/MS method (LLOQ=0.50 ng/mL). Pharmacokinetic parameters were calculated using the non-compartmental analysis tool of Phoenix WinNonlin® (Version 6.3).

[5] = Hepatic microsomal stability, Cynomolgus macaque; format: in vitro ADME; conditions: pooled liver microsomes, read-out: Mean intrinsic clearance
Method: as §1, §2

[6] = male, beagle, plasma, 0.05 mg/kg intravenous

C#Cc1cc(Nc2nccc(Oc3ccc(NC(=O)Nc4cc(C(C)(C)C)nn4-c4ccc(C)cc4)c4ccccc34)n2)cc(C(=O)NCCOCCOCCOC)c1 [Example 2, 3-((4-((4-(3-(3-(tert-Butyl)-1-(p-tolyl)-1H-pyrazol-5-yl)ureido)naphthalen-1-yl)oxy)pyrimidin-2-yl)amino)-5-ethynyl-N-(2-(2-(2-methoxyethoxy)ethoxy)ethyl)-benzamide]
% left ([1]; 0 min): 100%
% left ([1]; 60° C., 300 min): 83%
% left ([1]; 60° C., 1440 min): 39%
% β-catenin induction ([2]; 1 μg/mL): 0%
% β-catenin induction ([2]; 5 μg/mL): 2%
% β-catenin induction ([2]; 10 μg/mL): 0%
microsomal CLint at 0.1 μM [3]: > 554 µL/min/mg
Fpo ([4]; 1 mg/kg p.o., Plasma): 0%
AUC(0-inf) [4, 6]: 223 ± 92 ng·h/mL
AUC(0-t) [4, 6]: 218 ± 90 ng·h/mL
C0 [4, 6]: 1370 ng/mL
Vd [4, 6]: 0.2 ± 0.1 L/kg
clearance [4, 6]: 4.1 ± 1.4 mL/min/kg
half-life [4, 6]: 114 ± 24 min
microsomal CLint at 0.1 μM [5]: 445 µL/min/mg

From patent publication US10301288B2, “Kinase inhibitors” (Topivert Pharma Limited, priority 2013, dated 2019)
